Data from article PMC11496081, “The diversity of AMPA receptor inhibition mechanisms among amidine-containing compounds” (Frontiers in Pharmacology, 2024).
“And” between values parts separate entries of the source, which are not always exact repeats. Equal entries are not always repeated. Where two headings read alike, the source gives them in different places.

Columns and labels:
NMDA receptors = target: NMDA receptors; set-up: method as in Zhigulin and Barygin, 2023; details: ref Zhigulin and Barygin, 2023, cited from earlier work; for IC50: read-out: IC50 at -80mV, μM NMDAR; for δb NMDAR / Kb: channel site; for Kb: read-out: Kb, μM NMDAR; for Kd: superficial site, read-out: Kvin, μM NMDAR
[1] = system: calcium-permeable AMPA receptors (CP-AMPARs); test: Whole-cell patch clamp, block of kainate-induced currents in striatal giant interneurons; format: cell-based, rat
Method: (§1) The rats were anesthetised with sevoflurane and then decapitated. […] All experiments were performed at room temperature.
(§2) Pentamidine isethionate (P-155) was from Alomone laboratories.
(§3) The voltage dependence of compounds action was analysed by Woodhull model for permeable blockers ([Woodhull, 1973]; [Tikhonova et al., 2008]). According to this model, the voltage dependence of steady-state blockade is given by Equation 1: BV=100%−100%/1+C/KbexpF/RT zδb V+Kp exp−F/RT zδp V (1) where V is voltage, B is level of block (%), C is concentration of the drug, z is molecular charge, and R, F and T have their standard meanings. Kb is the affinity of a drug for the channel. The δb value reflects the fraction of membrane electric field that the charged blocking molecule crosses on its pathway between the external media and the binding site in the channel (where the total field has a value of 1). Parameters Kp and δp describe permeation through the channel. […] For this reason, we used Equation 2, which takes into account the possibility of inhibitor to bind also at superficial site ([Nikolaev and Tikhonov, 2023]), assuming that the binding to the deep and superficial site is independent. BV=100%−100%/1+C/KbexpF/RT zδb V+Kp exp−F/RT zδp V+C/Kvin+C^2/Kvin KbexpF/RT zδb V+Kp exp−F/RT zδp V (2)
(§4) All experimental data are presented as the mean ± SD estimated from at least four experiments (cells). Significance of the effects was tested with t-tests. Differences were considered significant at p < 0.05. Concentration dependencies were approximated by Hill equation. Voltage dependencies were approximated by Equation 1 or 2. […] Then all data was pooled together and the parameters of voltage dependence were estimated using the fitting of all measurements. For each holding potential ≥4 cells were used. Voltage dependence parameters (binding constants and δb values) are shown as the result of the fitting ± approximation errors.

[2] = target: T1, calcium-impermeable AMPA receptors (CI-AMPARs) (Rattus norvegicus, UniProt P19490+P19491, Q607R); test: Whole-cell patch clamp, kainate-induced currents in hippocampal CA1 pyramidal neurons; format: cell-based; details: for δb CI-AMPAR: fixed δb values obtained from the CP-AMPARs data; for inhibition at 200 µM: furamidine 50 µM
Method: as §1, §2, §3, §4

[3] = system: calcium-permeable AMPA receptors (CP-AMPARs); set-up: method as in Zhigulin et al., 2022; details: −80 mV, ref Zhigulin et al., 2022, cited from earlier work
[4] = target: T1, calcium-impermeable AMPA receptors (CI-AMPARs); set-up: method as in Zhigulin et al., 2022; details: 100 µM compound, −80 mV; ref Zhigulin et al., 2022; cited from earlier work
[5] = target: T1, calcium-impermeable AMPA receptors (CI-AMPARs); test: Whole-cell patch clamp, glutamate-induced currents in hippocampal CA1 pyramidal neurons
Method: The rats were anesthetised with sevoflurane and then decapitated. The brains were brought out quickly and cooled to 2°C–4°C. Transverse striatal or hippocampal slices were cut using a vibratome (Campden Instruments) and stored in a solution containing (in mM): NaCl 124, KCl 5, CaCl2 1.3, MgCl2 2.0, NaHCO3 26, NaH2PO4 1.24, D-glucose 10, aerated with carbogen (95% O2, 5% CO2). All experiments were performed at room temperature.
Vibrodissociation method ([Vorobjev, 1991]; [Jun et al., 2011]) was used to free CA1 pyramidal neurons or giant striatal interneurons from slices. This method allows isolating cells without enzymatic treatment and keep them in more native state. […] The antagonism of CI-AMPARs was studied on pyramidal neurons from the CA1 area of the hippocampus. These cells were isolated from the stratum pyramidale and distinguished from non-pyramidal cells on the basis of pyramidal-like somata and preserved apical dendrites.
To record membrane currents in response to applications of kainate or glutamate the whole-cell configuration of patch clamp technique was used. Series resistance (<20 MΩ) was compensated by 70%–80% and monitored during experiments. […]
AMPA receptors were activated with 100 µM kainate or 1 mM glutamate unless otherwise stated. […] The effects of compounds on steady-state currents for different drug concentrations were measured at −80 mV holding voltages. […]

[6] = 100 µM compound, kainate-induced current, −80 mV
[7] = kainate-induced current, −80 mV; read-out: IC50, µM CP-AMPARs
[8] = voltage dependence fitted by eq. 1; read-out: Kb, µM CP-AMPARs (binding to channel site)
[9] = voltage dependence −140 to +40 mV fitted by eq. 1
[10] = −80 mV; IEM-1925 1 µM, pentamidine 50 μM

T1 sequence (P19491 22-883 Q607R): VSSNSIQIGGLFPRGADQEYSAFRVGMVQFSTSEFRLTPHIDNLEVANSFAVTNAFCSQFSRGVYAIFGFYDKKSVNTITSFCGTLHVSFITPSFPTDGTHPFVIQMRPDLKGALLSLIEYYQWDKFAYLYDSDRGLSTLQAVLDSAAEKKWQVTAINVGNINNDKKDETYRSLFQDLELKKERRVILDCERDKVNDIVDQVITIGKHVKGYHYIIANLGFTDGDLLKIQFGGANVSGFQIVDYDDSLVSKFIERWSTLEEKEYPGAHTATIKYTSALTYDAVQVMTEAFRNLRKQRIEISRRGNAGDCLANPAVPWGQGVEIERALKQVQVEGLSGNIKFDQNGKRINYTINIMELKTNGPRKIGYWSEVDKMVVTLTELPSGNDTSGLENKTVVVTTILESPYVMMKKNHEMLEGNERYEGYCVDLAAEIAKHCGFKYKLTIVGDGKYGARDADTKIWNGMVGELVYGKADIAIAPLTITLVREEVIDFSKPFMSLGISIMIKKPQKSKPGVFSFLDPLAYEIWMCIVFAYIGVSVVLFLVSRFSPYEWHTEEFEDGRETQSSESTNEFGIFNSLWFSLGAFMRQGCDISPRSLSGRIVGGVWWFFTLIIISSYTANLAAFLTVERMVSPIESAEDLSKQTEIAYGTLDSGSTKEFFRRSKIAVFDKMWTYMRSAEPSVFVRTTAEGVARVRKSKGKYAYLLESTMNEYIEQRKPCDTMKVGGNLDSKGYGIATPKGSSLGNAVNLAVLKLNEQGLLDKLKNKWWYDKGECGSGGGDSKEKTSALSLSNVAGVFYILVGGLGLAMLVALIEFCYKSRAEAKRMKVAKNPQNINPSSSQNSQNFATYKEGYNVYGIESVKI
T1 sequence (P19490 19-907): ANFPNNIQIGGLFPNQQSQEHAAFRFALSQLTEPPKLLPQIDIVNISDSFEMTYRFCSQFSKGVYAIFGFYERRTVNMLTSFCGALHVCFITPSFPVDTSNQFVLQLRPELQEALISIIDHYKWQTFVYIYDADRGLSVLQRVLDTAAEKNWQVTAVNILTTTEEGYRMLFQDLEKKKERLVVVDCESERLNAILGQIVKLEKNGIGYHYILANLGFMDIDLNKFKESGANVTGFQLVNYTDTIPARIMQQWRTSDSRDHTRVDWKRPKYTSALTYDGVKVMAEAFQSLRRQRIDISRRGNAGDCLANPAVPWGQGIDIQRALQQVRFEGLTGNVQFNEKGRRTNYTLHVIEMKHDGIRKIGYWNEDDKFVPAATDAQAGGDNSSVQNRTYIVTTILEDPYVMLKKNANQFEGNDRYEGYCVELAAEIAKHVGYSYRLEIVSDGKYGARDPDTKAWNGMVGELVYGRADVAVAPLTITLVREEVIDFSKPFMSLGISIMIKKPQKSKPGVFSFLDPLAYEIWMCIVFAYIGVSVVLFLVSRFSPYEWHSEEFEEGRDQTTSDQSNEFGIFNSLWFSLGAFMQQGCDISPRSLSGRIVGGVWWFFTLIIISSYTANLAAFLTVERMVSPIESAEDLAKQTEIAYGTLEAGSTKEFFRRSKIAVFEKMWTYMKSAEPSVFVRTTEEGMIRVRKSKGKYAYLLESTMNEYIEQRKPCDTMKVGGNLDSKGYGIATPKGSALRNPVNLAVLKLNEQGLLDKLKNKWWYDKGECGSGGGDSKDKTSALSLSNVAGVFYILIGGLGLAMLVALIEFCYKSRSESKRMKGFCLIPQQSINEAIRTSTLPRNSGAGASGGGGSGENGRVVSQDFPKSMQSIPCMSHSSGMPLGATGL

Compound | IC50 (NMDA receptors; −80 mV) | Block at 100 µM, % CP-AMPARs [1, 6] | IC50 [1, 7] | δb CI-AMPAR [2] | δb NMDAR (NMDA receptors) | Kb (NMDA receptors) | Kd (NMDA receptors) | Kb [1, 8] | δb CP-AMPARs (fraction of membrane electric field to channel site) [1, 9] | other results
CN(C)C(=O)COC(=O)Cc1ccc(OC(=O)c2ccc(NC(=N)N)cc2)cc1 [Camostat] | > 100 µM | 16 ± 4 (n=4) % | > 100 µM |  |  |  |  |  |  | IC50 at -80mV, μM NMDAR (NMDA receptors; −80 mV): ineffective; Block at 100 µM, % CP-AMPARs ([1]; 100 µM compound, kainate-induced current, −80 mV; listed as camostat): < 50%
N=C(N)c1ccc(-c2cc3ccc(C(=N)N)cc3[nH]2)cc1 [DAPI, 4′,6-diamidino-2-phenylindole] | 3.1 µM | 83 ± 4 (n=4) % | 27 ± 1 µM | 0.65 | 0.55 | 5000 µM | 3.2 µM | 5.4 ± 1.2 µM |  | Block at 100 µM, % CI-AMPARs [2, 6]: 64 ± 5 (n=6) %; Kb ([2]; fitted by eq. 2 with fixed δb values from CP-AMPARs data, read-out: Kb, µM CI-AMPARs (binding to channel site)): 24 ± 7 µM; Kd ([2]; fitted by eq. 2 with fixed δb values from CP-AMPARs data, read-out: Kvin, µM CI-AMPARs (binding to superficial site)): 62 ± 6 µM; IC50 ([2]; kainate-induced current, −80 mV): 59 ± 9 µM
N=C(N)c1ccc(/N=N/Nc2ccc(C(=N)N)cc2)cc1 [Diminazene] | 13 µM |  |  | 0.65 | 0.55 | 1500 µM | 14 µM | 47 ± 5 µM | 0.64 ± 0.05 and 0.65 | Block at 100 µM, % CP-AMPARs ([3]; 100 µM compound): 69 ± 4 %; IC50 [3]: 60 ± 11 µM; Block at 100 µM, % CI-AMPARs [4]: 31 ± 7 %; δb CP-AMPARs (fraction of membrane electric field to channel site) ([1]; voltage dependence −140 to +40 mV fitted by eq. 1; listed as diminazene): around 0.7
N=C(N)c1ccc(-c2ccc(-c3ccc(C(=N)N)cc3)o2)cc1 [Furamidine] | 0.64 µM | 79 ± 7 (n=4) % |  | 0.7 | 0.55 | 22 µM | 3.3 µM |  | 0.72 ± 0.15 and 0.7 | Block at 100 µM, % CP-AMPARs ([1]; 100 µM compound, kainate-induced current, −80 mV; listed as furamidine): 75–80%; IC50 ([1]; read-out: IC50, µM CP-AMPARs; kainate-induced current, −80 mV): 38 µM; Kb ([1]; read-out: Kb, µM CP-AMPARs (binding to channel site); voltage dependence fitted by eq. 1): 15 µM; δb CP-AMPARs (fraction of membrane electric field to channel site) ([1]; voltage dependence −140 to +40 mV fitted by eq. 1; listed as furamidine): around 0.7
CCOC(=O)c1ccc(OC(=O)CCCCCNC(=N)N)cc1 [Gabexate] | 16 µM | 30 ± 4 (n=4) % | > 100 µM |  | 0.55 | 800 µM | 25 µM |  |  | 
N=C(N)c1ccc2cc(OC(=O)c3ccc(N=C(N)N)cc3)ccc2c1 [Nafamostat] | 0.2 µM | 60 ± 11 (n=4) % | 55 ± 24 µM | 0.75 | 0.55 | 11 µM | 3 µM | 9 ± 4 µM | 0.76 ± 0.16 and 0.75 | IC50 ([1]; kainate-induced current, −80 mV; listed as nafamostat; read-out: IC50, µM CP-AMPARs): ~55 µM; Kb ([1]; voltage dependence fitted by eq. 1; listed as nafamostat; read-out: Kb, µM CP-AMPARs (binding to channel site)): 5 to 10 µM; δb CP-AMPARs (fraction of membrane electric field to channel site) ([1]; voltage dependence −140 to +40 mV fitted by eq. 1; listed as nafamostat): around 0.7
N=C(N)c1ccc(OCCCCCOc2ccc(C(=N)N)cc2)cc1 [Pentamidine] | 0.41 µM | 70 ± 4 (n=4) % | 43 ± 9 µM | 0.5 | 0.7 | 27 µM | 10 µM | 36 ± 4 µM | 0.49 ± 0.04 and 0.5 | inhibition at 100 µM ([2]; read-out: Block at 100 µM, % CI-AMPARs, 100 µM compound, kainate-induced current, −80 mV): 39 ± 5%; inhibition at 200 µM ([2]; read-out: block of CI-AMPARs with 50 µM kainate, −80 mV, pentamidine 200 µM, no cyclothiazide): 38%; inhibition at 200 µM ([2]; read-out: block of CI-AMPARs with 500 µM kainate, −80 mV, pentamidine 200 μM): 61%; remaining activity at 100 µM ([5]; read-out: Idrug/Icontrol, glutamate-induced steady-state current): 140 ± 10%; washout kinetics τ of perampanel and pentamidine mixture ([1]; 100 nM perampanel + 500 µM pentamidine, in presence of kainate): 620 ± 470 ms; block of CP-AMPARs at +40 mV ([1]; 100 μM, +40 mV, representative example): 27%; block of CP-AMPARs at −40 mV ([1]; 100 μM, −40 mV, representative example): 78%; rectification index (current ratio between +40 mV and −40 mV) ([1]; 10 mM in pipette solution, kainate-induced responses): 0.10 ± 0.04; washout kinetics τ, CP-AMPARs ([1]; in presence of kainate): 120 ± 60 ms
N=C(N)c1ccc2cc(OC(=O)c3ccc(NC4=NCCN4)cc3)ccc2c1 [Sepimostat] | 3.5 µM | 66 ± 5 (n=4) % | 56 ± 6 µM | 0.9 | 0.55 | 102 µM | 7 µM | 71 ± 9 µM | 0.88 ± 0.12 and 0.9 | inhibition at 100 µM ([2]; 100 µM compound, kainate-induced current, −80 mV, read-out: Block at 100 µM, % CI-AMPARs): 37 ± 3%; inhibition remaining in trapping protocol after 10 s without kainate ([1]; 300 µM sepimostat): 21% ± 2%; recovery (washout) kinetics τ, CP-AMPARs ([1]; in presence of kainate): 1.5 ± 0.3 s; IC50 ([1]; kainate-induced current, −80 mV; listed as sepimostat; read-out: IC50, µM CP-AMPARs): ~55 µM; δb CP-AMPARs (fraction of membrane electric field to channel site) ([1]; voltage dependence −140 to +40 mV fitted by eq. 1; listed as sepimostat): ~0.9
NS(=O)(=O)c1cc2c(cc1Cl)NC(C1CC3C=CC1C3)NS2(=O)=O (stereo not drawn) [cyclothiazide] |  |  |  |  |  |  |  |  |  | fold induction at 100 µM ([2]; read-out: increase in current at 50 µM kainate): 8 ± 2; fold induction at 100 µM ([2]; read-out: potentiation of responses evoked by 100 µM kainate): 6 ± 3; fold induction at 100 µM ([5]; read-out: enhancement of glutamate-induced currents): 12 ± 3
N#Cc1ccccc1-c1cc(-c2ccccn2)cn(-c2ccccc2)c1=O [perampanel] |  |  |  |  |  |  |  |  |  | inhibition at 0.1 µM ([2]; read-out: inhibition of kainate-induced CI-AMPAR currents in absence of cyclothiazide, 100 nM perampanel): 74%; inhibition of CP-AMPARs in presence of kainate ([1]; 100 nM perampanel): 50%–70%
IEM-1925 |  |  |  |  |  |  |  |  |  | inhibition of CP-AMPARs with 50 µM kainate [1, 10]: 40% ± 3%; inhibition of CP-AMPARs with 500 µM kainate [1, 10]: 48% ± 5%
